Reference: publication PMC7095208 (Nature, 2014)
Read-outs that look alike come from different tables or passages of the source.

How the values were obtained:
[1] = tested on: filoviruses; conditions: cited from earlier work
[2] = rat, in vivo, im
[3] = molecular target: HCV NS5B RNA polymerase (Hepatitis C virus genotype 1b, UniProt P26663); assay type: biochemical
[4] = tested on: filoviruses; conditions: in vivo; cited from earlier work
[5] = tested on: human RNA or DNA
[6] = tested on: JUNV Romero; experiment: organism not typed; assay type: cell-based, Junín virus; conditions: HeLa
[7] = tested on: Marburg virus - Musoke; assay type: cell-based
[8] = tested on: EBOV minigenome RNA replicon; assay type: cell-based, Ebola virus
[9] = tested on: MARV Angola; experiment: organism not typed; assay type: cell-based, Marburg virus; conditions: HeLa
[10] = tested on: Rift Valley fever virus (ZH501); conditions: mouse, in vivo
[11] = tested on: MARV (Musoke variant)
[12] = tested on: MARV-Angola; conditions: guinea pig, in vivo
[13] = in vitro; conditions: human, s9, half-life (t1/2)
[14] = tested on: MARV Ci67; experiment: organism not typed; assay type: cell-based, Marburg virus; conditions: HeLa
[15] = in vitro; conditions: human
[16] = molecular target: hERG ion channel (Homo sapiens, UniProt Q12809); experiment: hERG ion channel current; assay type: biochemical; conditions: 30 µM; data not shown
Chain of hERG ion channel (Q12809 whole entry): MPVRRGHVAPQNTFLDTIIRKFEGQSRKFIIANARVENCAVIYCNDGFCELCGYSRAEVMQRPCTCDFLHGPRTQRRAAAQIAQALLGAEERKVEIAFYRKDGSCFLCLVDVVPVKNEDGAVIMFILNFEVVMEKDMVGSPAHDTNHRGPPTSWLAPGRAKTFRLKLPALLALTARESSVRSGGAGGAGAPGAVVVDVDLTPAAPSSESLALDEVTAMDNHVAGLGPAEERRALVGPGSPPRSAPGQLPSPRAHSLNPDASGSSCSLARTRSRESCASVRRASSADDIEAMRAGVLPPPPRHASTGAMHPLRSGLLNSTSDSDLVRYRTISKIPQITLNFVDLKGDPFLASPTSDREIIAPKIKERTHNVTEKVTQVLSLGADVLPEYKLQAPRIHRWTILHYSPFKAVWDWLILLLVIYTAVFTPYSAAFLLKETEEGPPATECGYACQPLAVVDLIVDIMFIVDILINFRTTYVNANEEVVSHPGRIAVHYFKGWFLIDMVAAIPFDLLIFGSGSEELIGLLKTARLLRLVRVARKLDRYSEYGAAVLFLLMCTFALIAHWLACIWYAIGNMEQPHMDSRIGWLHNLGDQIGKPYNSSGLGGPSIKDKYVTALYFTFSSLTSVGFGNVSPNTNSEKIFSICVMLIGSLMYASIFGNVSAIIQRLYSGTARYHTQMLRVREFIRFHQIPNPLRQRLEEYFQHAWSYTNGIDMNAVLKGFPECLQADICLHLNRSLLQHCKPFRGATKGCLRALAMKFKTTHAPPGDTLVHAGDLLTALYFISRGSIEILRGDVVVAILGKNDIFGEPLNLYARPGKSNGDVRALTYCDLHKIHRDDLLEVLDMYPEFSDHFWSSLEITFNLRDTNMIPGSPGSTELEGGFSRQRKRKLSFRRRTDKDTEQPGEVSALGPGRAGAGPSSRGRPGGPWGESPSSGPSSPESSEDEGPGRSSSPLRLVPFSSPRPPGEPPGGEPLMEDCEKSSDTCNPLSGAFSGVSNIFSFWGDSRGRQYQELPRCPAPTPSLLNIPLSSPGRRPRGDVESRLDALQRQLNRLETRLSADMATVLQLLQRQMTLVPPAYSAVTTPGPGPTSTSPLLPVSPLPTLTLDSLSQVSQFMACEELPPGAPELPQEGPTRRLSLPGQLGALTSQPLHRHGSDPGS

[17] = tested on: RVFV ZH5018; experiment: microbe, parasite or virus in culture; assay type: cell-based; conditions: Rift Valley fever virus, HeLa
[18] = in vivo; conditions: Sprague-Dawley, rat
[19] = tested on: human lymphocytes; conditions: 787 µM
[20] = tested on: MARV Musoke; experiment: organism not typed; assay type: cell-based, Marburg virus; conditions: HeLa
[21] = tested on: HeLa cells; conditions: human
[22] = in vivo; conditions: mouse, iv
[23] = tested on: EBOV Kikwit; experiment: microbe, parasite or virus in culture; assay type: cell-based, Ebola virus; conditions: Zaire ebolavirus, HeLa
[24] = tested on: MARV-Musoke; conditions: guinea pig, in vivo
[25] = in vivo; conditions: cynomolgus monkey, im
[26] = tested on: SUDV Boniface; experiment: microbe, parasite or virus in culture; assay type: cell-based; conditions: Sudan ebolavirus, HeLa
[27] = in vitro; conditions: dog, pH 1

Chain of HCV NS5B RNA polymerase (P26663 2420-2989 limits assumed): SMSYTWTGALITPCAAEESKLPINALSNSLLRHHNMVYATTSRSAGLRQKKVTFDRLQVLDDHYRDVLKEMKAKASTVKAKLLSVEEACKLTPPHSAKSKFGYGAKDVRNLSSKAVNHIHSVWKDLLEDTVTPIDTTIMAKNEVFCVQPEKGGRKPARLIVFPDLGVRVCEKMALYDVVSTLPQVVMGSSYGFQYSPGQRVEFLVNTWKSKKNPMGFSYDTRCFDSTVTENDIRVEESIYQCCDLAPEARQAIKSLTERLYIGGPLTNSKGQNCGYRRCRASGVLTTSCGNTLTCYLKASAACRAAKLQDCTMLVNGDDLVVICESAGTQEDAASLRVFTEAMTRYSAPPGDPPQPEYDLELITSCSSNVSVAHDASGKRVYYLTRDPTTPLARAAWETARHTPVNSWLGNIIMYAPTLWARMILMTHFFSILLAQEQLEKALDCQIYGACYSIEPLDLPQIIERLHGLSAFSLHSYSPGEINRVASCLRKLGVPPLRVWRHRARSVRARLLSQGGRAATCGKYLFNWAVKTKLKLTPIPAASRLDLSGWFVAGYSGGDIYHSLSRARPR

NC(=O)c1ncn([C@@H]2O[C@H](CO)[C@@H](O)[C@H]2O)n1 [ribavirin]
activity against filoviruses [1]: not active

Nc1ncnc2c([C@@H]3N[C@H](COP(=O)(O)OP(=O)(O)OP(=O)(O)O)[C@@H](O)[C@H]3O)c[nH]c12 [BCX4430-TP]
half-life in the liver [2]: 372 min | RNA chain synthesis by HCV RNA polymerase [3]: induces premature termination

NC(=O)c1nc(F)c[nH]c1=O [T-705, favipiravir]
protection against filoviruses in rodents [4]: high-degree of protection

Nc1ncnc2c([C@@H]3N[C@H](CO)[C@@H](O)[C@H]3O)c[nH]c12 [BCX4430, (2S,3S,4R,5R)-2-(4-amino-5H-pyrrolo[3,2-d]pyrimidin-7-yl)-5-(hydroxymethyl)pyrrolidine-3,4-diol]
incorporation of BCX4430-MP into human RNA or DNA [5]: no evidence of BCX4430-MP incorporation | EC50 [6]: 42.2 µM | EC90 [6]: > 100 µM | production of infectious MARV virus [7]: no detectable infectious MARV virus | GFP expression in EBOV minigenome replicon assay [8]: reduces expression of green fluorescent protein | EC50 [9]: 5 µM | EC90 [9]: 12.3 µM | protection against lethal Rift Valley fever virus challenge [10]: protected | animals surviving ([11]; cynomolgus monkey, in vivo): 83% | haemorrhagic disease manifestations (PT, aPTT, serum AST, bilirubin) vs vehicle ([11]; cynomolgus monkey, in vivo): ameliorated | serum MARV burden ([11]; cynomolgus monkey, in vivo): significantly and substantially reduced | tolerability ([11]; cynomolgus monkey, in vivo): well tolerated | animals surviving ([11]; n = 6): All animals | post-exposure protection [12]: significant post-exposure protection | protection [12]: protected | half-life [13]: > 54 min | EC50 [14]: 6.7 µM | EC90 [14]: 16.1 µM | CC50 [15]: > 296 µM | inhibition of hERG ion channel current [16]: did not inhibit | EC50 [17]: 41.6 µM | EC90 [17]: 98 µM | half-life [18]: < 5 min | chromosomal aberrations [19]: no detectable chromosomal aberrations | EC50 [20]: 4.4 µM | EC90 [20]: 10.5 µM | CC50 [21]: 242 µM | half-life [22]: < 5 min | EC50 [23]: 11.8 µM | EC90 [23]: 25.4 µM | post-exposure protection [24]: significant post-exposure protection | half-life [25]: < 5 min | EC50 [26]: 3.4 µM | EC90 [26]: 10.3 µM | CC50 [27]: > 296 µM

Nc1nccc2c1ncn2C1C=C(CO)C(O)C1O (stereo not shown) [c^3-Npc A, 3-deazaneplanocin A]
protection against filoviruses in rodents [4]: high-degree of protection
